Patent US20260174741A1, “METHODS OF REDUCING MIRO1 OR PHOSPHORYLATED ALPHA-SYNUCLEIN” (Acurex Biosciences Corporation, priority 2022, published 2026)
Where two headings read alike, the source gives them in different places.

Assays:
[1] = test system: tyrosine-hydroxylase positive (TH+) dopaminergic neurons; test: Rat primary midbrain neuron co-culture, alpha-synuclein oligomer challenge with co-dosed/pre-treated compound: TH+ neuron count and neurite length; assay type: cell-based; settings: for EC50: Rattus norvegicus, Neuron; for TH+ neurite length / TH+ neuron count: absence of any neuronal challenge; for dopamine neuron survival / dopamine neuron neurite length: dose-response experiment; for dopamine neuron survival: alpha-synuclein oligomer challenge (FIG. 2A, 5A); for dopamine neuron neurite length: alpha-synuclein oligomer challenge (FIG. 2B, 5B); for TH+ dopaminergic neuron neurite length / TH-positive dopaminergic neuron viability: immunocytochemistry, alpha-synuclein oligomers 500 nM, 96 hours
Experimental: (§1) The neuronal challenge was alpha-synuclein oligomers.
(§2) After incubation with alpha-synuclein (α-syn) oligomer, cells were fixed by a solution of 4% paraformaldehyde for 20 min at room temperature, the control conditions were fixed as well following the same procedure. The cells were then permeabilized and non-specific sites were blocked with a solution of phosphate buffered saline containing (PBS) with saponin and FCS for 15 min at room temperature. Cells were incubated with a chicken Anti-Tyrosine Hydroxylase antibody (TH, Abcam, ref 76442), a mouse monoclonal Anti-α-syn P129 antibody (Abcam, ref ab184674) and a Rabbit polyclonal Anti-Miro1 antibody (Sigma, ref: HPA010687) in PBS with saponin and FCS overnight at 4° C. […] Nuclei of cells were labelled by a fluorescent marker (Hoechst solution) in the same solution.
(§3) For each well of culture, pictures were taken using InCell Analyzer™ 2200 (GE Healthcare) with 20× magnification. All the images were taken in the same conditions. The number of dopaminergic neurons (TH), the neurite length of dopaminergic neurons, the signal of phosphorylated 129 of α-syn in dopaminergic neurons and the signal of Miro1 in dopaminergic neurons were automatically evaluated with Developer system analysis (GE Healthcare). All values were expressed as mean±standard error of the mean. Statistical analyses were done on the different conditions (ANOVA followed by Dunnett's test).
(§4) In an initial study, rat primary midbrain neuron co-cultures were incubated with alpha-synuclein oligomer alone, with 400 nM Compound 1, or with positive control.
(§5) Immunocytochemistry was performed for DAPI (nuclear dye), Tyrosine Hydroxylase (TH, a marker for dopaminergic neurons), and phospho-Serine129 alpha-synuclein (pS129 α-syn, a pathogenic form of alpha-synuclein found in Lewy Body pathology) in primary rat midbrain neuron co-cultures. In naive untreated neuronal cultures, healthy TH-positive dopaminergic neurons with elaborate neurites were observed and there was very low pS129 α-synbackground signal. When these neuronal cultures were stressed with toxic exogenous alpha-synuclein oligomers (500 nM, 96 hours), there was a large and statistically significant (1) loss of TH+dopaminergic neuron viability, (2) decrease of TH+dopaminergic neuron neurite length, (3) increase in pS129 α-syn-positive Lewy Body formation, and (4) increase in Miro1 protein levels.

[2] = test system: phosphorylated serine-129 (pS129) alpha-synuclein; test: Rat primary midbrain neuron co-culture, alpha-synuclein oligomer challenge with co-dosed/pre-treated compound: pS129 alpha-synuclein; assay type: cell-based; settings: for IC50: Rattus norvegicus, Neuron, read-out: IC50 for lowering pathogenic pS129 alpha-synuclein; for number of pS129+ TH+ neurons: absence of any neuronal challenge; for levels of pathogenic pS129 alpha-synuclein: dose-response experiment, alpha-synuclein oligomer challenge (FIG. 3A, 6A); for pS129 alpha-syn-positive Lewy Body formation / pS129 alpha-syn-positive Lewy Body formation in TH-negative non-dopaminergic neurons: immunocytochemistry; for pS129 alpha-syn-positive Lewy Body formation: alpha-synuclein oligomers 500 nM, 96 hours; for pS129 alpha-syn-positive Lewy Body formation in TH-negative non-dopaminergic neurons: alpha-synuclein oligomers
Experimental: as §1, §2, §3, §4, §5

Miro1 [3] = test: Rat primary midbrain neuron co-culture, alpha-synuclein oligomer challenge with co-dosed/pre-treated compound: Miro1 levels; assay type: cell-based; settings: for Miro1 levels: absence of any neuronal challenge; for rescue of Miro1 elevation due to alpha-synuclein oligomer challenge: dose-response experiment (FIG. 3B, 6B); for Miro1 protein levels: immunocytochemistry, alpha-synuclein oligomers 500 nM, 96 hours; for Miro1 release: initial study
Experimental: as §1, §2, §3, §4, §5

[4] = test system: TH+ neurite length of rat dopaminergic neurons; test: Interventional treatment of rat dopaminergic neurons after alpha-synuclein oligomer injury: TH+ neurite length; assay type: cell-based; settings: interventional: 2 days alpha-syn oligomer, then 2 more days with compound
Experimental: (§6) Rat dopaminergic neurons were cultured as previously described (Schinelli, S. et al. Journal of Neurochemistry 1988, 50(6), pages 1900-1907). After 7 days of culture, cells were challenged with alpha-synuclein oligomer (500 nM) for 48 hours. […] By condition, N=6 wells were performed and one plate of 96 wells were performed.
(§7) After 4 days of incubation with α-syn oligomer, cells were fixed by a solution of 4% paraformaldehyde for 20 min at room temperature, the control conditions were fixed as well following the same procedure. The cells were then permeabilized and non-specific sites were blocked with a solution of phosphate buffered saline containing (PBS) with saponin and FCS for 15 min at room temperature. […]
(§8) For each well of culture, pictures were taken using InCell Analyzer™ 2200 (GE Healthcare) with 20× magnification. […] The number of dopaminergic neurons (TH), the neurite length of dopaminergic neurons, the signal of phosphorylated 129 of α-syn in dopaminergic neurons and the signal of Miro1 in dopaminergic neurons were automatically evaluated with Developer system analysis (GE Healthcare). All values were expressed as mean±standard error of the mean. […]

[5] = test system: phosphorylated Ser129 alpha-synuclein; test: Interventional treatment of rat dopaminergic neurons after alpha-synuclein oligomer injury: phosphorylated Ser129-positive TH+ neurons; assay type: cell-based; settings: interventional: 2 days alpha-syn oligomer 500 nM, then 2 more days with compound
Experimental: as §6, §7, §8

Miro1 [6] = test: Interventional treatment of rat dopaminergic neurons after alpha-synuclein oligomer injury: Miro1 levels in TH+ neurons; assay type: cell-based; settings: 4 days total, doses from 123 nM to 10 μM, compared to no treatment (FIG. 9)
Experimental: Rat dopaminergic neurons were cultured as previously described (Schinelli, S. et al. Journal of Neurochemistry 1988, 50(6), pages 1900-1907). After 7 days of culture, cells were challenged with alpha-synuclein oligomer (500 nM) for 48 hours. Subsequent to the challenge, cells were subjected to alpha-synuclein (α-syn) oligomer (500 nM)+various concentrations of Compound 1 (0, 14, 41, 123, 370, 1100, 3300, and 10000 nM) for an additional 48 hours. By condition, N=6 wells were performed and one plate of 96 wells were performed.
as §7, §8

[7] = test system: tyrosine-hydroxylase positive (TH+) dopaminergic neurons; test: Rat primary midbrain neuron co-culture, alpha-synuclein oligomer challenge with co-dosed/pre-treated compound: TH+ neuron count and neurite length; assay type: cell-based; settings: initial study, 40 nM, incubated with alpha-synuclein oligomer (FIG. 4A)
[8] = test system: Parkinson's disease subject-derived fibroblast lines; test: Ferroptosis assay: human fibroblast survival assay with RSL3 challenge; assay type: cell-based; settings: DAPI-positive nuclei count, read-out: EC50 for cell survival (ferroptosis inhibition)
Experimental: Human fibroblast survival assay. All fibroblasts were obtained from the National Institute of Neurological Disorders and Stroke (NINDS) cell line repository housed at Rutgers University. Compounds were tested in at least one of the following Parkinson's disease subject-derived fibroblast lines: Line ND29802 (LRRK2 G2019S mutation carrier), Line ND40996 (SNCA A53T mutation carrier), or Line ND34263 (GBA N370S mutation carrier).
Human fibroblasts were seeded into 96-well plates on Day 0. On Day 1, fibroblasts were challenged with RSL3 (a ferroptosis activator, CAS No. 1219810-16-8) alone or in co-treatment with test compound administered in dose response. On Day 2, fibroblasts were fixed and stained by the nuclear stain 4′, 6-diamidino-2-phenylindole (DAPI), and the number of DAPI-positive nuclei were counted for each condition using the Yokogawa CQ1 imaging platform to quantify the EC50 for cell survival.

[9] = test system: phosphorylated serine-129 (pS129) alpha-synuclein; test: Rat primary midbrain neuron co-culture, alpha-synuclein oligomer challenge with co-dosed/pre-treated compound: pS129 alpha-synuclein; assay type: cell-based; settings: initial study, 40 nM, incubated with alpha-synuclein oligomer (FIG. 4C)
ferroptosis = settings: described in Example 2 of PCT/US23/73312 as Compound 4; read-out: ferroptosis inhibitor EC50; cited from earlier work

Structure (SMILES): C[C@@H](NC(=O)Cc1ccc(C(F)(F)F)cc1)c1cc2cnn(CC(F)(F)F)c2cn1 [Compound 1, (R)—N-(1-(1-(2,2,2-trifluoroethyl)-1H-pyrazolo[3,4-c]pyridin-5-yl)ethyl)-2-(4-(trifluoromethyl)phenyl)acetamide]
- EC50 ([1]; alpha-synuclein oligomer challenge, read-out: EC50 for rescue of TH-positive neurite length): < 150 nM
- EC50 ([1]; alpha-synuclein oligomer challenge, read-out: EC50 for rescue of TH-positive neuron viability): ~250 nM
- TH+ neurite length [1]: did not affect
- TH+ neuron count [1]: did not affect
- dopamine neuron survival [1]: rescued dopamine neuron survival in a dose-dependent fashion
- dopamine neuron neurite length [1]: rescued dopamine neuron neurite length in a dose-dependent fashion
- TH+ dopaminergic neuron neurite length ([1]; pre-treated 400 nM): rescue of TH+dopaminergic neuron neurite length
- TH-positive dopaminergic neuron viability ([1]; pre-treated 400 nM): rescue of TH-positive dopaminergic neuron viability
- TH+ neuronal loss induced by alpha-synuclein oligomer ([1]; initial study, 400 nM, incubated with alpha-synuclein oligomer (FIG. 1A)): prevented TH+ neuronal loss
- IC50 ([2]; alpha-synuclein oligomer challenge): < 125 nM
- number of pS129+ TH+ neurons [2]: did not affect
- levels of pathogenic pS129 alpha-synuclein [2]: lowered levels of pathogenic pS129 α-synin a dose-dependent fashion
- pS129 alpha-syn-positive Lewy Body formation ([2]; pre-treated 400 nM): decrease/prevention in pS129 α-syn-positive Lewy Body formation
- pS129 alpha-syn-positive Lewy Body formation in TH-negative non-dopaminergic neurons ([2]; pre-treatment 1.1 uM): robust decrease/prevention
- pathogenic phosphorylated serine-129 (pS129) alpha-synuclein levels ([2]; initial study, 400 nM, incubated with alpha-synuclein oligomer (FIG. 1C)): reduction of pathogenic phosphorylated serine-129 (pS129) alpha-synuclein levels
- Miro1 levels (Miro1 [3]): did not affect
- rescue of Miro1 elevation due to alpha-synuclein oligomer challenge (Miro1 [3]): did not reach statistical significance
- Miro1 protein levels (Miro1 [3]; pre-treated 400 nM): decrease in Miro1 protein levels
- Miro1 release (Miro1 [3]; 400 nM, incubated with alpha-synuclein oligomer (FIG. 1B)): statistically significant rescue of Miro1 release
- TH+ neurite length ([4]; doses of 370 nM, 3.3 µM, or 10 µM, compared to no treatment (FIG. 8B)): significantly restored
- levels of phosphorylated Ser129-positive TH+ neurons ([5]; doses from 370 nM to 10 μM, compared to no treatment (FIG. 7B)): significantly reduced
- Miro1 levels in TH+ neurons (Miro1 [6]): statistically significantly reduced
- TH+ neuronal loss induced by alpha-synuclein oligomer [7]: prevented TH+ neuronal loss

Structure (SMILES): CCN1CCN(c2ccc3nc4ccc(=O)cc-4sc3c2)CC1 [Compound 5, 7-(4-ethylpiperazin-1-yl)-3H-phenothiazin-3-one]
- EC50 ([1]; read-out: EC50 for rescue of TH-positive neurite length): < 0.4 nM
- EC50 ([1]; read-out: EC50 for rescue of TH-positive neuron viability): ~7 nM
- TH+ neurite length [1]: did not affect
- TH+ neuron count [1]: did not affect
- dopamine neuron survival [1]: rescued dopamine neuron survival in a dose-dependent fashion
- dopamine neuron neurite length [1]: rescued dopamine neuron neurite length in a dose-dependent fashion
- TH+ dopaminergic neuron neurite length ([1]; pre-treated 40 nM): rescue of TH+dopaminergic neuron neurite length
- TH-positive dopaminergic neuron viability ([1]; pre-treated 40 nM): rescue of TH-positive dopaminergic neuron viability
- IC50 [2]: < 0.4 nM
- number of pS129+ TH+ neurons [2]: did not affect
- levels of pathogenic pS129 alpha-synuclein [2]: lowered levels of pathogenic pS129 α-synin a dose-dependent fashion
- pS129 alpha-syn-positive Lewy Body formation ([2]; pre-treated 40 nM): decrease/prevention in pS129 α-syn-positive Lewy Body formation
- pS129 alpha-syn-positive Lewy Body formation in TH-negative non-dopaminergic neurons ([2]; pre-treatment 3.7 nM): robust decrease/prevention
- Miro1 levels (Miro1 [3]): did not affect
- rescue of Miro1 elevation due to alpha-synuclein oligomer challenge (Miro1 [3]): did not reach statistical significance
- Miro1 protein levels (Miro1 [3]; pre-treated 40 nM): decrease in Miro1 protein levels
- Miro1 release (Miro1 [3]; 40 nM, incubated with alpha-synuclein oligomer (FIG. 4B)): statistically significant rescue of Miro1 release
- EC50 [8]: 3.6 nM
- pathogenic phosphorylated serine-129 (pS129) alpha-synuclein levels [9]: reduction of pathogenic phosphorylated serine-129 (pS129) alpha-synuclein levels

Structure (SMILES): CC(C)N1[C@@H]2CC[C@H]1CN(c1ccc3nc4ccc(=O)cc-4sc3c1)C2 [Compound 9]
- TH+ neurite length ([4]; doses of 11 nM, 33 nM, or 100 nM, compared to no treatment (FIG. 11B)): significantly restored
- levels of phosphorylated Ser129-positive TH+ neurons ([5]; doses of 11 nM, 33 nM, or 100 nM, compared to no treatment (FIG. 10B)): significantly reduced
- EC50 (ferroptosis): 2.9 nM
